Test results reported in patent US4060606A (Leo Pharmaceutical Products Ltd. A/S, priority 1976, dated 1977).
Converted amounts (≈) assume the structure as drawn. One block for each compound: values may come before it.

Columns and labels:
Test in all cases: In vitro antibacterial activity, concentrations required for 50% inhibition
Type in all cases: cell-based
[1] = test system: Bacteroides fragilis Leo JA2; conditions: LEOJA2
Text: (§1) Now, however, it has been found, that the compounds of the present invention both in vitro and in vivo show interesting antimicrobial and pharmacokinetic properties. Thereby the compounds of the invention can be used in the treatment of bacterial infections in humans and animals.

Strep. pyogenes Leo EC = conditions: Streptococcus pyogenes
Text: as §1

[2] = test system: Bacillus subtilis Leo KA3; conditions: LEOKA3
Text: as §1

Strep. species Leo EG2 = test system: Strep. species Leo EG2
Text: as §1

[3] = test system: Staph. aureus Leo CC 178B; conditions: Staphylococcus aureus, LEOCC178B
Text: as §1

Compound: CC(C)=CCC/C(C(=O)O)=C1/[C@@H](SC(C)C)C[C@@]2(C)[C@H]1C[C@@H](O)[C@H]1[C@@]3(C)CC[C@@H](O)[C@@H](C)[C@@H]3CC[C@@]12C [Example 1, 16-Deacetoxy-16β-isopropylthiofusidic acid]
IC50 [1]: 5 µg/mL (≈ 9.38 µM)
IC50 (Strep. pyogenes Leo EC): 0.2 µg/mL (≈ 0.375 µM)
IC50 [2]: 0.02 µg/mL (≈ 0.0375 µM)
IC50 (Strep. species Leo EG2): 1 µg/mL (≈ 1.88 µM)
IC50 [3]: 0.032 µg/mL (≈ 0.0601 µM)

Compound: CC(C)CCC/C(C(=O)O)=C1/[C@@H](SC(C)C)C[C@@]2(C)[C@H]1C[C@@H](O)[C@H]1[C@@]3(C)CC[C@@H](O)[C@@H](C)[C@@H]3CC[C@@]12C [Example 11, 16-Deacetoxy-16β-isopropylthio-24,25-dihydrofusidic acid]
IC50 [1]: 4 µg/mL (≈ 7.48 µM)
IC50 (Strep. pyogenes Leo EC): 0.04 µg/mL (≈ 0.0748 µM)
IC50 [2]: 0.008 µg/mL (≈ 0.015 µM)
IC50 (Strep. species Leo EG2): 0.1 µg/mL (≈ 0.187 µM)
IC50 [3]: 0.016 µg/mL (≈ 0.0299 µM)

Compound: CC(C)=CCC/C(C(=O)O)=C1/[C@@H](SC(C)C)C[C@@]2(C)[C@H]1CC(=O)[C@H]1[C@@]3(C)CC[C@@H](O)[C@@H](C)[C@@H]3CC[C@@]12C [Example 32, 11-Keto-16-deacetoxy-16β-isopropylthiofusidic acid]
IC50 [1]: 3.2 µg/mL (≈ 6.03 µM)
IC50 (Strep. pyogenes Leo EC): 0.2 µg/mL (≈ 0.377 µM)
IC50 [2]: 0.02 µg/mL (≈ 0.0377 µM)
IC50 (Strep. species Leo EG2): 0.63 µg/mL (≈ 1.19 µM)
IC50 [3]: 0.02 µg/mL (≈ 0.0377 µM)

Compound: CC(C)CCC/C(C(=O)O)=C1/[C@@H](SC(C)C)C[C@@]2(C)[C@H]1CC(=O)[C@H]1[C@@]3(C)CC[C@@H](O)[C@@H](C)[C@@H]3CC[C@@]12C [Example 33, 11-Keto-16-deacetoxy-16β-isopropylthio-24,25-dihydrofusidic acid]
IC50 [1]: 2 µg/mL (≈ 3.75 µM)
IC50 (Strep. pyogenes Leo EC): 0.32 µg/mL (≈ 0.601 µM)
IC50 [2]: 0.05 µg/mL (≈ 0.0938 µM)
IC50 (Strep. species Leo EG2): 0.79 µg/mL (≈ 1.48 µM)
IC50 [3]: 0.04 µg/mL (≈ 0.0751 µM)

Compound: CC(C)=CCC/C(C(=O)O)=C1/[C@@H](SC(C)C)C[C@@]2(C)[C@H]1C[C@@H](O)[C@H]1[C@@]3(C)CCC(=O)[C@@H](C)[C@@H]3CC[C@@]12C [Example 34, 3-Keto-16-deacetoxy-16β-isopropylthiofusidic acid]
IC50 [1]: 5 µg/mL (≈ 9.42 µM)
IC50 (Strep. pyogenes Leo EC): 0.4 µg/mL (≈ 0.754 µM)
IC50 [2]: 0.05 µg/mL (≈ 0.0942 µM)
IC50 (Strep. species Leo EG2): 1 µg/mL (≈ 1.88 µM)
IC50 [3]: 0.04 µg/mL (≈ 0.0754 µM)

Compound: CC(C)=CCC/C(C(=O)O)=C1/[C@@H]([S+]([O-])C(C)C)C[C@@]2(C)[C@H]1C[C@@H](O)[C@H]1[C@@]3(C)CC[C@@H](O)[C@@H](C)[C@@H]3CC[C@@]12C (stereo partly drawn) [Example 35, 16-deacetoxy-16β-isopropylsulfinylfusidic acid]
IC50 [1]: 1.3 µg/mL (≈ 2.37 µM)
IC50 (Strep. pyogenes Leo EC): 0.2 µg/mL (≈ 0.364 µM)
IC50 [2]: 0.4 µg/mL (≈ 0.729 µM)
IC50 (Strep. species Leo EG2): 0.32 µg/mL (≈ 0.583 µM)
IC50 [3]: 0.05 µg/mL (≈ 0.0911 µM)

Compound: CC(C)CCC/C(C(=O)O)=C1/[C@@H]([S+]([O-])C(C)C)C[C@@]2(C)[C@H]1C[C@@H](O)[C@H]1[C@@]3(C)CC[C@@H](O)[C@@H](C)[C@@H]3CC[C@@]12C (stereo partly drawn) [Example 42, 16-Deacetoxy-16β-isopropylsulfinyl-24,25-dihydrofusidic acid]
IC50 [1]: 1.6 µg/mL (≈ 2.9 µM)
IC50 (Strep. pyogenes Leo EC): 0.16 µg/mL (≈ 0.29 µM)
IC50 [2]: 0.16 µg/mL (≈ 0.29 µM)
IC50 (Strep. species Leo EG2): 0.5 µg/mL (≈ 0.908 µM)
IC50 [3]: 0.04 µg/mL (≈ 0.0726 µM)

Compound: CCO[C@H]1C[C@@]2(C)[C@@H](C[C@@H](O)[C@H]3[C@@]4(C)CC[C@@H](O)[C@@H](C)[C@@H]4CC[C@@]32C)/C1=C(\CCC=C(C)C)C(=O)O [Example 46, 16-Deacetoxy-16β-ethoxyfusidic acid]
IC50 [1]: 1 µg/mL (≈ 1.99 µM)
IC50 (Strep. pyogenes Leo EC): 1 µg/mL (≈ 1.99 µM)
IC50 [2]: 0.05 µg/mL (≈ 0.0995 µM)
IC50 (Strep. species Leo EG2): 5 µg/mL (≈ 9.95 µM)
IC50 [3]: 0.025 µg/mL (≈ 0.0497 µM)

Compound: CC(C)=CCC/C(C(=O)O)=C1/[C@@H](OCC(F)(F)F)C[C@@]2(C)[C@H]1C[C@@H](O)[C@H]1[C@@]3(C)CC[C@@H](O)[C@@H](C)[C@@H]3CC[C@@]12C [Example 48, 16-deacetoxy-16β-(2',2',2'-trifluoroethoxy)fusidic acid]
IC50 [1]: 32 µg/mL (≈ 57.5 µM)
IC50 (Strep. pyogenes Leo EC): 0.5 µg/mL (≈ 0.898 µM)
IC50 [2]: 0.02 µg/mL (≈ 0.0359 µM)
IC50 (Strep. species Leo EG2): 1 µg/mL (≈ 1.8 µM)
IC50 [3]: 0.016 µg/mL (≈ 0.0287 µM)

Compound: CC(C)=CCC/C(C(=O)O)=C1/[C@@H](OCCF)C[C@@]2(C)[C@H]1C[C@@H](O)[C@H]1[C@@]3(C)CC[C@@H](O)[C@@H](C)[C@@H]3CC[C@@]12C [Example 50, 16-Deacetoxy-16β-(2'-fluoroethoxy)fusidic acid]
IC50 [1]: 0.32 µg/mL (≈ 0.615 µM)
IC50 (Strep. pyogenes Leo EC): 0.63 µg/mL (≈ 1.21 µM)
IC50 [2]: 0.05 µg/mL (≈ 0.096 µM)
IC50 (Strep. species Leo EG2): 2.5 µg/mL (≈ 4.8 µM)
IC50 [3]: 0.02 µg/mL (≈ 0.0384 µM)

Compound: CC(C)=CCC/C(C(=O)O)=C1/[C@@H](OC(CF)CF)C[C@@]2(C)[C@H]1C[C@@H](O)[C@H]1[C@@]3(C)CC[C@@H](O)[C@@H](C)[C@@H]3CC[C@@]12C [Example 52]
IC50 [1]: 0.63 µg/mL (≈ 1.14 µM)
IC50 (Strep. pyogenes Leo EC): 0.5 µg/mL (≈ 0.905 µM)
IC50 [2]: 0.04 µg/mL (≈ 0.0724 µM)
IC50 (Strep. species Leo EG2): 3.2 µg/mL (≈ 5.79 µM)
IC50 [3]: 0.025 µg/mL (≈ 0.0452 µM)

Compound: CCO[C@H]1C[C@@]2(C)[C@@H](CC(=O)[C@H]3[C@@]4(C)CC[C@@H](O)[C@@H](C)[C@@H]4CC[C@@]32C)/C1=C(\CCC=C(C)C)C(=O)O [Example 75, 11-Keto-16-deacetoxy-16β-ethoxyfusidic acid]
IC50 [1]: 13 µg/mL (≈ 26 µM)
IC50 (Strep. pyogenes Leo EC): 1 µg/mL (≈ 2 µM)
IC50 [2]: 0.05 µg/mL (≈ 0.0999 µM)
IC50 (Strep. species Leo EG2): 3.2 µg/mL (≈ 6.39 µM)
IC50 [3]: 0.02 µg/mL (≈ 0.0399 µM)

Compound: CC(C)=CCC/C(C(=O)O)=C1/[C@@H](OCCF)C[C@@]2(C)[C@H]1CC(=O)[C@H]1[C@@]3(C)CC[C@@H](O)[C@@H](C)[C@@H]3CC[C@@]12C [Example 76, 11-Keto-16-deacetoxy-16β-(2'-fluoroethoxy)fusidic acid]
IC50 [1]: 2 µg/mL (≈ 3.86 µM)
IC50 (Strep. pyogenes Leo EC): 1.6 µg/mL (≈ 3.08 µM)
IC50 [2]: 0.032 µg/mL (≈ 0.0617 µM)
IC50 (Strep. species Leo EG2): 4 µg/mL (≈ 7.71 µM)
IC50 [3]: 0.025 µg/mL (≈ 0.0482 µM)

IC50 [1]: 1.6 µg/mL (≈ 3.1 µM)
IC50 (Strep. pyogenes Leo EC): 0.79 µg/mL (≈ 1.53 µM)
IC50 [2]: 0.2 µg/mL (≈ 0.387 µM)
IC50 (Strep. species Leo EG2): 1.6 µg/mL (≈ 3.1 µM)
IC50 [3]: 0.032 µg/mL (≈ 0.0619 µM)
Compound: CC(=O)O[C@H]1C[C@@]2(C)[C@@H](C[C@@H](O)[C@H]3[C@@]4(C)CC[C@@H](O)[C@@H](C)[C@@H]4CC[C@@]32C)/C1=C(\CCC=C(C)C)C(=O)O [Fusidic acid, reference compound]
